# Target: T1, Recombinant human CBP containing the bromodomain (CBP-BD (1043-1159)) (Homo sapiens, UniProt Q92793)
# T1 construct: Recombinant human CBP bromodomain (CBP-BD (1043-1159)); made in house; host or cells: E. coli BL21-CodonPlus (DE3), modified pET vector
# Assay: CBP Alphascreen binding assay
# Details: read-out: CREBBP (CBP) IC50
# Method in brief: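 Buffer: 50 mM HEPES pH 7.5, 50 mM NaCl, 0.01% BSA, 0.01% Triton X-100, 2 mM DTT. The signal was normalised to plate controls and fitted with a four-parameter curve to give IC50.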
# T1 sequence (Q92793 1081-1197): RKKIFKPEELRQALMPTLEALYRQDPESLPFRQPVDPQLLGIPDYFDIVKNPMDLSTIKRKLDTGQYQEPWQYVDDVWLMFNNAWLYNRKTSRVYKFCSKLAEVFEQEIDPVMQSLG
row,Compound,IC50
1,"CCOc1c(F)c(C(=O)O)c(F)c(OCC)c1-c1cn(-c2ccc(F)cc2F)c2ncc(-c3c(C)noc3C)cc12 [P-0296, 4-(1-(2,4-difluorophenyl)-5-(3,5-dimethylisoxazol-4-yl)-1H-pyrrolo[2,3-b]pyridin-3-yl)-3,5-diethoxy-2,6-difluorobenzoic acid]",0.1 to 1000 nM
2,"CCOc1cc(C(=O)O)c(F)c(OCC)c1-c1cn(-c2ccc(F)cc2F)c2ncc(-c3c(C)noc3C)cc12 [P-0297, 4-(1-(2,4-difluorophenyl)-5-(3,5-dimethylisoxazol-4-yl)-1H-pyrrolo[2,3-b]pyridin-3-yl)-3,5-diethoxy-2-fluorobenzoic acid]",0.1 to 1000 nM
3,"Cc1noc(C)c1-c1cnc2c(-c3ccccc3)cn(-c3c(OCC(F)(F)F)cc(C(=O)O)cc3OCC(F)(F)F)c2c1 [P-0298, 4-(6-(3,5-dimethylisoxazol-4-yl)-3-phenyl-1H-pyrrolo[3,2-b]pyridin-1-yl)-3,5-bis(2,2,2-trifluoroethoxy)benzoic acid]",0.1 to 1000 nM
4,"Cc1noc(C)c1-c1cnc2c(c1)c(-c1ccc(C(=O)O)cc1OC(C)C)cn2-c1cnn(CC(C)(C)O)c1 [P-0299, 4-(5-(3,5-dimethylisoxazol-4-yl)-1-(1-(2-hydroxy-2-methylpropyl)-1H-pyrazol-4-yl)-1H-pyrrolo[2,3-b]pyridin-3-yl)-3-isopropoxybenzoic acid]",0.1 to 1000 nM
5,"Cc1noc(C)c1-c1cnc2c(c1)c(-c1ccc(C(=O)O)cc1OC(C)C)cn2-c1cnc(N2CCC2)nc1 [P-0300, 4-(1-(2-(azetidin-1-yl)pyrimidin-5-yl)-5-(3,5-dimethylisoxazol-4-yl)-1H-pyrrolo[2,3-b]pyridin-3-yl)-3-isopropoxybenzoic acid]",0.1 to 1000 nM
6,"Cc1noc(C)c1-c1cnc2c(c1)c(-c1ccc(C(=O)O)cc1OC(C)C)cn2[C@H]1CCOC1 [P-0301, (S)-4-(5-(3,5-dimethylisoxazol-4-yl)-1-(tetrahydrofuran-3-yl)-1H-pyrrolo[2,3-b]pyridin-3-yl)-3-isopropoxybenzoic acid]",0.1 to 1000 nM
7,"Cc1noc(C)c1-c1cnc2c(c1)c(-c1ccc(S(C)(=O)=O)cc1OC(C)C)cn2-c1ccccc1 [P-0302, 4-(3-(2-isopropoxy-4-(methylsulfonyl)phenyl)-1-phenyl-1H-pyrrolo[2,3-b]pyridin-5-yl)-3,5-dimethylisoxazole]",0.1 to 1000 nM
8,"CCCn1nc(C(=O)O)c(N)c1-c1cn(-c2ccc(F)cc2F)c2ncc(-c3c(C)noc3C)cc12 [P-0303, 4-amino-5-(1-(2,4-difluorophenyl)-5-(3,5-dimethylisoxazol-4-yl)-1H-pyrrolo[2,3-b]pyridin-3-yl)-1-propyl-1H-pyrazole-3-carboxylic acid]",0.1 to 1000 nM
9,"CCCn1nc(C(=O)O)c(NCC)c1-c1cn(-c2ccc(F)cc2F)c2ncc(-c3c(C)noc3C)cc12 [P-0304, 5-(1-(2,4-difluorophenyl)-5-(3,5-dimethylisoxazol-4-yl)-1H-pyrrolo[2,3-b]pyridin-3-yl)-4-(ethylamino)-1-propyl-1H-pyrazole-3-carboxylic acid]",0.1 to 1000 nM
10,"Cc1nnn(C)c1-c1cnc2c(c1)c(-c1ccc(C(=O)O)cc1OC(F)(F)F)cn2CC/C=C/C1CC1 [P-0305, (E)-4-(1-(4-cyclopropylbut-3-en-1-yl)-5-(1,4-dimethyl-1H-1,2,3-triazol-5-yl)-1H-pyrrolo[2,3-b]pyridin-3-yl)-3-(trifluoromethoxy)benzoic acid]",0.1 to 1000 nM
11,"Cc1noc(C)c1-c1cnc2c(c1)c(-c1ccc(C(=O)O)cc1OCC(F)F)cn2-c1ccncc1Cl [P-0306, 4-(1-(3-chloropyridin-4-yl)-5-(3,5-dimethylisoxazol-4-yl)-1H-pyrrolo[2,3-b]pyridin-3-yl)-3-(2,2-difluoroethoxy)benzoic acid]",0.1 to 1000 nM
12,"Cc1noc(C)c1-c1cnc2c(c1)c(-c1ccc(C(=O)O)cc1OC(F)(F)F)cn2-c1ccccc1Cl [P-0307, 4-(1-(2-chlorophenyl)-5-(3,5-dimethylisoxazol-4-yl)-1H-pyrrolo[2,3-b]pyridin-3-yl)-3-(trifluoromethoxy)benzoic acid]",0.1 to 1000 nM
13,"Cc1noc(C)c1-c1cnc2c(c1)c(-c1ccc(C(=O)O)cc1OC(F)(F)F)cn2-c1ccccc1C1CC1 [P-0308, 4-(1-(2-cyclopropylphenyl)-5-(3,5-dimethylisoxazol-4-yl)-1H-pyrrolo[2,3-b]pyridin-3-yl)-3-(trifluoromethoxy)benzoic acid]",0.1 to 1000 nM
14,"Cc1noc(C)c1-c1cnc2c(c1)c(-c1ccc(C(=O)O)cc1OC(F)(F)F)cn2-c1ccccc1C#N [P-0309, 4-(1-(2-cyanophenyl)-5-(3,5-dimethylisoxazol-4-yl)-1H-pyrrolo[2,3-b]pyridin-3-yl)-3-(trifluoromethoxy)benzoic acid]",0.1 to 1000 nM
15,"Cc1cc(C#N)ccc1-n1cc(-c2ccc(C(=O)O)cc2OC(F)(F)F)c2cc(-c3c(C)noc3C)cnc21 [P-0310, 4-(1-(4-cyano-2-methylphenyl)-5-(3,5-dimethylisoxazol-4-yl)-1H-pyrrolo[2,3-b]pyridin-3-yl)-3-(trifluoromethoxy)benzoic acid]",0.1 to 1000 nM
16,"COc1ccc(-n2cc(-c3ccc(C(=O)O)cc3OC(F)(F)F)c3cc(-c4c(C)noc4C)cnc32)c(F)c1 [P-0311, 4-(5-(3,5-dimethylisoxazol-4-yl)-1-(2-fluoro-4-methoxyphenyl)-1H-pyrrolo[2,3-b]pyridin-3-yl)-3-(trifluoromethoxy)benzoic acid]",0.1 to 1000 nM
17,"C=C(C)c1ccccc1-n1cc(-c2ccc(C(=O)O)cc2OC(F)(F)F)c2cc(-c3c(C)noc3C)cnc21 [P-0312, 4-(5-(3,5-dimethylisoxazol-4-yl)-1-(2-(prop-1-en-2-yl)phenyl)-1H-pyrrolo[2,3-b]pyridin-3-yl)-3-(trifluoromethoxy)benzoic acid]",0.1 to 1000 nM
18,"Cc1noc(C)c1-c1cnc2c(c1)c(-c1ccc(C(=O)O)cc1OC(F)(F)F)cn2-c1ccc(C#N)cc1 [P-0313, 4-(1-(4-cyanophenyl)-5-(3,5-dimethylisoxazol-4-yl)-1H-pyrrolo[2,3-b]pyridin-3-yl)-3-(trifluoromethoxy)benzoic acid]",0.1 to 1000 nM
19,"Cc1noc(C)c1-c1cnc2c(c1)c(-c1ccc(C(=O)O)cc1OC(F)(F)F)cn2-c1ccc(C(C)(C)O)cc1 [P-0314, 4-(5-(3,5-dimethylisoxazol-4-yl)-1-(4-(2-hydroxypropan-2-yl)phenyl)-1H-pyrrolo[2,3-b]pyridin-3-yl)-3-(trifluoromethoxy)benzoic acid]",0.1 to 1000 nM
20,"Cc1noc(C)c1-c1cnc2c(c1)c(-c1ccc(C(=O)O)cc1OC(F)(F)F)cn2-c1ccsc1 [P-0315, 4-(5-(3,5-dimethylisoxazol-4-yl)-1-(thiophen-3-yl)-1H-pyrrolo[2,3-b]pyridin-3-yl)-3-(trifluoromethoxy)benzoic acid]",0.1 to 1000 nM

# Reference: patent publication US11446287B2, “Compounds and methods for EP300 or CBP modulation and indications therefor” (Opna Immuno-Oncology SA, priority 2019, dated 2022)
